Source: the supplement of paper PMC11208160

experiment: recombinant UMI read abundance after kanamycin selection (control-corrected) (log10(CPM+1)); higher = more efficient recombination; extreme values may be limits of the assay; sequences stand for … in AGTGCAGAGAAAATCGGCCAGTTTTCTCTGCCTGCAGTCCGCATGCCGTGGGACCCCTTGGGTTCTAACCTGTTGCCTAGATTTATGCAGCGGACTGCCTTTCTCCCAAAGTGATAAACCGG…AGGTTGGTTTCACT; site = the 11-nt donor
Procedure, shortened: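 After plating on IPTG (0.07 mM) plus kanamycin, or unselected, in two replicates, recombinant UMIs were PCR-amplified across the donor–target junction and sequenced. The cells were Escherichia coli co-electroporated with a UMI-tagged donor and donor-binding-loop pair library and a target plasmid with a fixed target and T7-inducible IS621 bridge recombinase. Values are log10(CPM+1), with CPM averaged over replicates and scaled by control-derived factors.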
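Note: IS621 bridge recombinase in Escherichia coli cells against a fixed T5 target plasmid.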

Sequence | recombinant UMI read abundance (log10)
GTGCATTCATGGACCGGTTTTCCCGGTAATCCGTATTTGGT (site GTGCATACTAC) | 0.361
GTGCATTCATGGACCGGTTTTCCCGGTAATCCGTATTTGGT (site GTGCATCCTAC) | 0.0125
GTGCATTCATGGACCGGTTTTCCCGGTAATCCGTATTTGGT (site GTGCATGCTAC) | 0
GTGCATTCATGGACCGGTTTTCCCGGTAATCCGTATTTGGT (site GTGCATTCTAC) | 1.99
GTGCCTGCATGGACCGGTTTTCCCGGTAATCCGTATTTGGT (site GTGCATGCTAC) | 0.0028
GTGCCTGCATGGACCGGTTTTCCCGGTAATCCGTATTTGGT (site GTGCCTGCTAC) | 0.328
GTGCCTGCATGGACCGGTTTTCCCGGTAATCCGTATTTGGT (site GTGCGTGCTAC) | 0.00453
GTGCCTGCATGGACCGGTTTTCCCGGTAATCCGTATTTGGT (site GTGCTTGCTAC) | 0.00506
GTGCTCACATGGACCGGTTTTCCCGGTAATCCGTATTTGAT (site GAGCTCACTAT) | 0.557
GTGCTCACATGGACCGGTTTTCCCGGTAATCCGTATTTGAT (site GCGCTCACTAT) | 0.322
GTGCTCACATGGACCGGTTTTCCCGGTAATCCGTATTTGAT (site GGGCTCACTAT) | 0.0156
GTGCTCACATGGACCGGTTTTCCCGGTAATCCGTATTTGAT (site GTGCTCACTAT) | 1.9
GTGCTTACATGGACCGGTTTTCCCGGTAATCCGTATTTGGC (site GTGCTTACTGC) | 1.9
GTGGAGCCATGGACCGGTTTTCCCGGTAATCCGTATTTGAT (site GTGGAGCCTAT) | 0.00342
GTGGATACATGGACCGGTTTTCCCGGTAATCCGTATTTGTG (site GTGGATACTCA) | 1.92
GTGGGGGCATGGACCGGTTTTCCCGGTAATCCGTATTTGTG (site GTGGAGGCTCA) | 1.07
GTGGGGGCATGGACCGGTTTTCCCGGTAATCCGTATTTGTG (site GTGGCGGCTCA) | 0.0124
GTGGGGGCATGGACCGGTTTTCCCGGTAATCCGTATTTGTG (site GTGGGGGCTCA) | 0.984
GTGGGGGCATGGACCGGTTTTCCCGGTAATCCGTATTTGTG (site GTGGTGGCTCA) | 0.0315
GTGGGTTCATGGACCGGTTTTCCCGGTAATCCGTATTTGCA (site GTGGGTTCTTG) | 2.55
GTGGTTCCATGGACCGGTTTTCCCGGTAATCCGTATTTGGT (site GTAGTTCCTAC) | 0.553
GTGGTTCCATGGACCGGTTTTCCCGGTAATCCGTATTTGGT (site GTCGTTCCTAC) | 0
GTGGTTCCATGGACCGGTTTTCCCGGTAATCCGTATTTGGT (site GTGGTTCCTAC) | 0.0114
GTGGTTCCATGGACCGGTTTTCCCGGTAATCCGTATTTGGT (site GTTGTTCCTAC) | 0.0137
GTGTATGCATGGACCGGTTTTCCCGGTAATCCGTATTTGGT (site GTGAATGCTAC) | 0.483
GTGTATGCATGGACCGGTTTTCCCGGTAATCCGTATTTGGT (site GTGCATGCTAC) | 1.24

Sequence | recombinant UMI read abundance (log10)
GTGTATGCATGGACCGGTTTTCCCGGTAATCCGTATTTGGT (site GTGGATGCTAC) | 0
GTGTATGCATGGACCGGTTTTCCCGGTAATCCGTATTTGGT (site GTGTATGCTAC) | 2
GTGTCATCATGGACCGGTTTTCCCGGTAATCCGTATTTGCA (site GTGTCATCTTG) | 0.804
GTGTTGCCATGGACCGGTTTTCCCGGTAATCCGTATTTGGC (site GTGTTGCCTGC) | 0
GTGTTTACATGGACCGGTTTTCCCGGTAATCCGTATTTGCG (site GTGTTTACTCG) | 1.66
GTTAACTCATGGACCGGTTTTCCCGGTAATCCGTATTTGAA (site GTTAACTCTTT) | 1.85
GTTAAGGCATGGACCGGTTTTCCCGGTAATCCGTATTTGAG (site GTTAAGGCTCT) | 1.41
GTTACAACATGGACCGGTTTTCCCGGTAATCCGTATTTGGC (site GTTAAAACTGC) | 0.0108
GTTACAACATGGACCGGTTTTCCCGGTAATCCGTATTTGGC (site GTTACAACTGC) | 0
GTTACAACATGGACCGGTTTTCCCGGTAATCCGTATTTGGC (site GTTAGAACTGC) | 0
GTTACAACATGGACCGGTTTTCCCGGTAATCCGTATTTGGC (site GTTATAACTGC) | 0
GTTACGTCATGGACCGGTTTTCCCGGTAATCCGTATTTGTA (site GTTACGTCTTA) | 1.22
GTTACTGCATGGACCGGTTTTCCCGGTAATCCGTATTTGCC (site GATACTGCTGG) | 0
GTTACTGCATGGACCGGTTTTCCCGGTAATCCGTATTTGCC (site GCTACTGCTGG) | 0
GTTACTGCATGGACCGGTTTTCCCGGTAATCCGTATTTGCC (site GGTACTGCTGG) | 0.914
GTTACTGCATGGACCGGTTTTCCCGGTAATCCGTATTTGCC (site GTTACTGCTGG) | 1.83
GTTAGCTCATGGACCGGTTTTCCCGGTAATCCGTATTTGTG (site GTTAGCTCTCA) | 0.415
GTTAGTACATGGACCGGTTTTCCCGGTAATCCGTATTTGGC (site GTTAGAACTGC) | 0
GTTAGTACATGGACCGGTTTTCCCGGTAATCCGTATTTGGC (site GTTAGCACTGC) | 0
GTTAGTACATGGACCGGTTTTCCCGGTAATCCGTATTTGGC (site GTTAGGACTGC) | 0
GTTAGTACATGGACCGGTTTTCCCGGTAATCCGTATTTGGC (site GTTAGTACTGC) | 0.861
GTTATACCATGGACCGGTTTTCCCGGTAATCCGTATTTGCT (site GTTATACCTAG) | 0
GTTATAGCATGGACCGGTTTTCCCGGTAATCCGTATTTGTC (site GTTATAGCTGA) | 2.53
GTTCCAACATGGACCGGTTTTCCCGGTAATCCGTATTTGTA (site GATCCAACTTA) | 0.0199
GTTCCAACATGGACCGGTTTTCCCGGTAATCCGTATTTGTA (site GCTCCAACTTA) | 0.287
GTTCCAACATGGACCGGTTTTCCCGGTAATCCGTATTTGTA (site GGTCCAACTTA) | 0.0991
